In patent publication US11926614B2, “1,2,4-triazole derivatives as tankyrase inhibitors” (priority 2018, dated 2024):
pIC50: −log10 of the molar value. Where two headings read alike, the source gives them in different places.

Legend:
[1] = target: TNKS2 (Homo sapiens (Human), UniProt Q9H2K2); assay: Biochemical IC50 TNKS2
Excerpt: (§1) XLfit (idbs) was used to determine the IC50-values in inhibition experiments. The following formula was chosen to fit the data points (Langmuir Binding Isotherm): fit=((A+(B*x))+4(C−B)*(1−exp((−1*D)*x)))/D)), res=(y−fit)

[2] = test system: HEK293; assay: Cellular IC50 HEK293; format: cell-based
Excerpt: as §1

[3] = read-out: Biochemical IC50 TNKS2
[4] = Homo sapiens, HEK293, HEK293; read-out: Cellular IC50 HEK293
[5] = Homo sapiens, HEK293; read-out: Cellular IC50 HEK293
[6] = Homo sapiens, HEK293, read-out: Cellular IC50 HEK293

TNKS2, sequence (Q9H2K2 whole entry): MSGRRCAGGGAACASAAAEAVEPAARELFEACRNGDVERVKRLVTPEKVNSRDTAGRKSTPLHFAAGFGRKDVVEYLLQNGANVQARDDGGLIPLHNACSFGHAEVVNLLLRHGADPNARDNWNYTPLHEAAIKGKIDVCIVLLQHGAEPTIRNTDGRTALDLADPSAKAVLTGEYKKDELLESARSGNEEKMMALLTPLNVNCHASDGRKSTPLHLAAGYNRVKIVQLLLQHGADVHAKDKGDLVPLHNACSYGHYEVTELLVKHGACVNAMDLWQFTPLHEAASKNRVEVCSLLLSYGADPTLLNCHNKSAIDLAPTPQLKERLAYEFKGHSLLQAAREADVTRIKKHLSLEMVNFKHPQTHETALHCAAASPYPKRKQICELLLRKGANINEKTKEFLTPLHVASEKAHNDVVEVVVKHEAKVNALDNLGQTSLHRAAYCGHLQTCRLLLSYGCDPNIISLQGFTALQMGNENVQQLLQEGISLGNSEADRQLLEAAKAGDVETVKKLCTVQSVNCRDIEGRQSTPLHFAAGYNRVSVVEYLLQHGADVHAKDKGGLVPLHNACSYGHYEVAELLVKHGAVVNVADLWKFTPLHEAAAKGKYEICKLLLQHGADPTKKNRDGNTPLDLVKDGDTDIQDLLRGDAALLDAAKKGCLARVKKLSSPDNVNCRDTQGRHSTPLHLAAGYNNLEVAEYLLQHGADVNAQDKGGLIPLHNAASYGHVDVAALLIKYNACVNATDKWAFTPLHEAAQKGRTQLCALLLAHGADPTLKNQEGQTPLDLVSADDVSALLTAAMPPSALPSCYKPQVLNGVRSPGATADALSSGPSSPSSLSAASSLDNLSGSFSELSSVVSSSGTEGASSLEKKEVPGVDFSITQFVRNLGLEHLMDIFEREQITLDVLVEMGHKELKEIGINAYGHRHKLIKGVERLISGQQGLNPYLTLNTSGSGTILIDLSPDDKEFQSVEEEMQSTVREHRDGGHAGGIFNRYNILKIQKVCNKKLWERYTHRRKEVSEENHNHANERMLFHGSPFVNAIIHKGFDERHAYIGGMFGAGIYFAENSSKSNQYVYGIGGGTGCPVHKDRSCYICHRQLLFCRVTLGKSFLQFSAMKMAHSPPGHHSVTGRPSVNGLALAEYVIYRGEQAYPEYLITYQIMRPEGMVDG

Compound	pIC50 [1, 3]	pIC50 [2, 4]	pIC50 [2, 5]	pIC50 [2, 6]	pIC50 [1]
CCOc1ccc(-c2nnc(C34CC(NC(=O)c5ccnc6cc(F)cnc56)(C3)C4)n2-c2ccc(C)s2)nc1 [Example 86, N-(3-(5-(5-ethoxypyridin-2-yl)-4-(5-methylthiophen-2-yl)-4H-1,2,4-triazol-3-yl)bicyclo[1.1.1]pentan-1-yl)-7-fluoro-1,5-naphthyridine-4-carboxamide]	8.66	8.77			
CCOc1ccc(-c2nnc(C34CC(NC(=O)c5ccnc6cc(F)cnc56)(C3)C4)n2-c2ccccc2)nc1 [Example 65, N-(3-(5-(5-ethoxypyridin-2-yl)-4-phenyl-4H-1,2,4-triazol-3-yl)bicyclo[1.1.1]pentan-1-yl)-7-fluoro-1,5-naphthyridine-4-carboxamide]	8.85	8.00			
O=C(N[C@H]1C[C@H](c2nnc(-c3ccncn3)n2-c2ccccc2Cl)C1)c1ccnc2cccnc12 [Example 5, N-((1S,3r)-3-(4-(2-chlorophenyl)-5-(pyrimidin-4-yl)-4H-1,2,4-triazol-3-yl)cyclobutyl)-1,5-naphthyridine-4-carboxamide]	9.07		9.00		
CCOc1ccc(-c2nnc([C@H]3C[C@H](NC(=O)c4ccccn4)C3)n2-c2ccc(C)s2)nc1 [Example 81, N-((1r,3r)-3-(5-(5-ethoxypyridin-2-yl)-4-(5-methylthiophen-2-yl)-4H-1,2,4-triazol-3-yl)cyclobutyl)picolinamide]	8.34			7.43	
O=C(N[C@H]1C[C@H](c2nnc(-c3nccs3)n2-c2ccccc2)C1)c1ccccc1 [Example 34, N-((1r,3r)-3-(4-phenyl-5-(thiazol-2-yl)-4H-1,2,4-triazol-3-yl)cyclobutyl)benzamide]	6.54	6.04			
CCOc1ccc(-c2nnc([C@H]3C[C@H](NC(=O)c4ccnc5cccnc45)C3)n2-c2ccc(Cl)s2)nc1 [Example 76, N-((1r,3r)-3-(4-(5-chlorothiophen-2-yl)-5-(5-ethoxypyridin-2-yl)-4H-1,2,4-triazol-3-yl)cyclobutyl)-1,5-naphthyridine-4-carboxamide]	8.70	8.96			
O=C(N[C@H]1C[C@H](c2nnc(-c3ccncn3)n2-c2ccccc2Cl)C1)c1ccc(F)cc1 [Example 15, N-((1S,3r)-3-(4-(2-chlorophenyl)-5-(pyrimidin-4-yl)-4H-1,2,4-triazol-3-yl)cyclobutyl)-4-fluorobenzamide]	8.39	7.52			
O=C(N[C@H]1C[C@H](c2nnc(-c3ccccn3)n2-c2ccccc2F)C1)c1ccc2cnccc2n1 [Example 192, N-((1S,3r)-3-(4-(2-fluorophenyl)-5-(pyridin-2-yl)-4H-1,2,4-triazol-3-yl)cyclobutyl)-1,6-naphthyridine-2-carboxamide]	8.37	8.28			
CCOc1ccc(-c2nnc(C34CC(NC(=O)c5ccccn5)(C3)C4)n2-c2ccccc2)nc1 [Example 66, N-(3-(5-(5-ethoxypyridin-2-yl)-4-phenyl-4H-1,2,4-triazol-3-yl)bicyclo[1.1.1]pentan-1-yl)picolinamide]	7.46	6.91			
[2H]C([2H])([2H])C([2H])([2H])Oc1ccc(-c2nnc([C@H]3C[C@H](NC(=O)c4ccnc5cc(F)cnc45)C3)n2-c2ccccc2F)nc1 [Example 94, N-((1S,3r)-3-(5-(5-(ethoxy-d5)pyridin-2-yl)-4-(2-fluorophenyl)-4H-1,2,4-triazol-3-yl)cyclobutyl)-7-fluoro-1,5-naphthyridine-4-carboxamide]			9.35		8.57
CCOc1ccc(-c2nnc([C@H]3C[C@H](NC(=O)c4ccccn4)C3)n2-c2cccc(Cl)c2)nc1 [Example 140, N-((1r,3r)-3-(4-(3-chlorophenyl)-5-(5-ethoxypyridin-2-yl)-4H-1,2,4-triazol-3-yl)cyclobutyl)picolinamide]	7.89			7.08	
O=C(N[C@H]1C[C@H](c2nnc(-c3ccc(OC(F)F)cn3)n2-c2ccccc2F)C1)c1ccc2cnccc2n1 [Example 184, N-((1S,3r)-3-(5-(5-(difluoromethoxy)pyridin-2-yl)-4-(2-fluorophenyl)-4H-1,2,4-triazol-3-yl)cyclobutyl)-1,6-naphthyridine-2-carboxamide]	8.47	8.00			
CCOc1ccc(-c2nnc([C@H]3C[C@H](NC(=O)c4ccnc5cc(F)cnc45)C3)n2-c2ccccc2F)nc1 [Example 57, N-((1S,3r)-3-(5-(5-ethoxypyridin-2-yl)-4-(2-fluorophenyl)-4H-1,2,4-triazol-3-yl)cyclobutyl)-7-fluoro-1,5-naphthyridine-4-carboxamide]	8.70		9.77		
CCOc1ccc(-c2nnc([C@H]3C[C@H](NC(=O)c4ncccc4C)C3)n2-c2ccccc2F)nc1 [Example 102, N-((1S,3r)-3-(5-(5-ethoxypyridin-2-yl)-4-(2-fluorophenyl)-4H-1,2,4-triazol-3-yl)cyclobutyl)-3-methylpicolinamide]	6.72	6.04			
CCOc1ccc(-c2nnc([C@H]3C[C@H](NC(=O)c4ccc(F)cc4)C3)n2-c2ccccc2Cl)nc1 [Example 137, N-((1S,3r)-3-(4-(2-chlorophenyl)-5-(5-ethoxypyridin-2-yl)-4H-1,2,4-triazol-3-yl)cyclobutyl)-4-fluorobenzamide]	8.31	8.00			
CCOc1ccc(-c2nnc(C34CC(NC(=O)c5ccnc6cccnc56)(C3)C4)n2-c2ccccc2)nc1 [Example 64, N-(3-(5-(5-ethoxypyridin-2-yl)-4-phenyl-4H-1,2,4-triazol-3-yl)bicyclo[1.1.1]pentan-1-yl)-1,5-naphthyridine-4-carboxamide]	8.85	8.52			
CCOc1ccc(-c2nnc([C@H]3C[C@H](NC(=O)c4nn(C)c5ccccc45)C3)n2-c2ccccc2F)nc1 [Example 153, N-((1S,3r)-3-(5-(5-ethoxypyridin-2-yl)-4-(2-fluorophenyl)-4H-1,2,4-triazol-3-yl)cyclobutyl)-1-methyl-1H-indazole-3-carboxamide]	7.89	7.25			
O=C(N[C@H]1C[C@H](c2nnc(-c3ccccc3)n2-c2ccccc2F)C1)c1ccc2cnccc2n1 [Example 178, N-((1S,3r)-3-(4-(2-fluorophenyl)-5-phenyl-4H-1,2,4-triazol-3-yl)cyclobutyl)-1,6-naphthyridine-2-carboxamide]	7.68	6.78			
O=C(N[C@H]1C[C@H](c2nnc(-c3ccncn3)n2-c2ccccc2Cl)C1)c1cccc(F)n1 [Example 19, N-((1S,3r)-3-(4-(2-chlorophenyl)-5-(pyrimidin-4-yl)-4H-1,2,4-triazol-3-yl)cyclobutyl)-6-fluoropicolinamide]	8.52	9.07			
O=C(N[C@H]1C[C@H](c2nnc(-c3nccs3)n2-c2ccccc2Cl)C1)c1ccnc2cccnc12 [Example 41, N-((1S,3r)-3-(4-(2-chlorophenyl)-5-(thiazol-2-yl)-4H-1,2,4-triazol-3-yl)cyclobutyl)-1,5-naphthyridine-4-carboxamide]	8.70	9.19			
CCOc1ccc(-c2nnc([C@H]3C[C@H](NC(=O)c4ccnc5cccnc45)C3)n2-c2ccc(C)s2)nc1 [Example 82, N-((1r,3r)-3-(5-(5-ethoxypyridin-2-yl)-4-(5-methylthiophen-2-yl)-4H-1,2,4-triazol-3-yl)cyclobutyl)-1,5-naphthyridine-4-carboxamide]	9.14			9.09	
CCOc1ccc(-c2nnc([C@H]3C[C@H](NC(=O)c4cc(C)ccn4)C3)n2-c2ccccc2F)nc1 [Example 103, N-((1S,3r)-3-(5-(5-ethoxypyridin-2-yl)-4-(2-fluorophenyl)-4H-1,2,4-triazol-3-yl)cyclobutyl)-4-methylpicolinamide]	8.35	7.60			
Cc1cccc(-c2nnc([C@H]3C[C@H](NC(=O)c4ccc5cnccc5n4)C3)n2-c2ccccc2F)n1 [Example 200, N-((1S,3r)-3-(4-(2-fluorophenyl)-5-(6-methylpyridin-2-yl)-4H-1,2,4-triazol-3-yl)cyclobutyl)-1,6-naphthyridine-2-carboxamide]	8.40	7.92			
CCOc1ccc(-c2nnc([C@H]3C[C@H](NC(=O)c4ccccn4)C3)n2-c2ccc(Cl)s2)nc1 [Example 75, N-((1r,3r)-3-(4-(5-chlorothiophen-2-yl)-5-(5-ethoxypyridin-2-yl)-4H-1,2,4-triazol-3-yl)cyclobutyl)picolinamide]	7.92			7.57	
O=C(N[C@H]1C[C@H](c2nnc(-c3cnccn3)n2-c2ccccc2F)C1)c1ccccn1 [Example 91, N-((1S,3r)-3-(4-(2-fluorophenyl)-5-(pyrazin-2-yl)-4H-1,2,4-triazol-3-yl)cyclobutyl)picolinamide]	6.55			6.45	
CCOc1ccc(-c2nnc([C@H]3C[C@H](NC(=O)c4cccc(C#N)n4)C3)n2-c2ccccc2F)nc1 [Example 53, 6-cyano-N-((1S,3r)-3-(5-(5-ethoxypyridin-2-yl)-4-(2-fluorophenyl)-4H-1,2,4-triazol-3-yl)cyclobutyl)picolinamide]	8.43	7.89			
CCOc1ccc(-c2nnc([C@H]3C[C@H](NC(=O)c4ccc(C(C)O)cn4)C3)n2-c2ccccc2F)nc1 (mixture of isomers) [Example 100, rac-N-((1R,3r)-3-(5-(5-ethoxypyridin-2-yl)-4-(2-fluorophenyl)-4H-1,2,4-triazol-3-yl)cyclobutyl)-5-(1-hydroxyethyl)picolinamide]		7.32			8.09
CCOc1ccc(-c2nnc([C@H]3C[C@H](NC(=O)c4ccnc5cc(F)cnc45)C3)n2-c2cccnc2)nc1 [Example 164, N-((1r,3r)-3-(5-(5-ethoxypyridin-2-yl)-4-(pyridin-3-yl)-4H-1,2,4-triazol-3-yl)cyclobutyl)-7-fluoro-1,5-naphthyridine-4-carboxamide]	8.24			8.05	
